Experimental data: patent publication US7632957B2, “Esterification reaction products and cosmetic products” (The Nisshin Oillio Group, Ltd., priority 2005, dated 2009)

Experiments:
Assay type in all cases: physicochemical
[1] = Water-retaining property test (mass loss after 24 hours at 40° C.); details: reduced mass after 24 hours at 40° C., lid off; lower is better
Procedure: (3) Water-Retaining Property Test
A measurement sample (1 g) and Vaseline (9 g) are mixed and vigorously stirred (500 rpm, 3 minutes) in a thermostat chamber at 40° C. while dropwise adding 10 g of purified water thereto (the ratio of purified water to the mixture of sample and Vaseline was 1:1). When the sample become smooth, 10 g of the sample is uniformly applied onto a Petri dish so as to have a thickness of 0.5 to 1.5 mm and then put in a thermostat chamber at 40° C. with the lid off. After 24 hours, the sample is taken out from the chamber. The mass after the still standing is measured, and the reduced mass after the standing is calculated and is expressed as a percentage to the mass of the applied sample. A lower value means better water-retaining properties of the sample.

[2] = Dispersibility test (titanium oxide, octyl palmitate; wetting point and fluid point); details: sample 4 g + titanium oxide 20 g, octyl palmitate added; for (4) Dispersibility Wetting point: lower is better
Procedure: A sample (4 g) and titanium oxide (20 g) are mixed, and then octyl palmitate (manufactured by The Nisshin OilliO Group, Ltd. under the trade name Salacos P-8) is gradually added thereto. The point when the mixture become uniform as a whole is determined as the wetting point, and the point when the mixture starts to flow by tilting the whole mixture is determined as the fluid point. The amounts of octyl palmitate added until to reach the respective points are measured and used as the wetting point value and the fluid point value.
A lower wetting point value or a smaller difference between the wetting point value and the fluid point value means higher pigment-dispersing properties of the sample.

[3] = Water-holding property test 2 (differential scanning calorimetry of sample:water 7:3); details: sample:water 7:3, DSC 2° C./min from −15° C. to 45° C.; no peak = good water-holding
Procedure: (2) Water-Holding Property Test 2
A measurement sample and water are mixed at a mass ratio of 7:3 and are vigorously stirred (500 rpm, 3 minutes) in a thermostatic chamber at 70° C. to obtain a water-holding substance. The obtained water-holding substance is analyzed with a differential scanning calorimeter (device name “DSC 6200”, manufactured by Seiko Instruments Inc.). That is, the temperature of the water-holding substance is raised at a rate of 2° C./min in the range from −15° C. to 45° C. to obtain a differential scanning calorimetry curve, and the curve is confirmed whether an endothermic peak due to water at around 0° C. is present or not. When this endothermic peak is not observed, the water-holding properties are judged to be good.

[4] = Water-holding property test 1 (water taken up by sample/Vaseline mixture at 40° C.); details: sample 1 g + Vaseline 9 g, mass of water to mass of mixture, higher is better
Procedure: (1) Water-Holding Property Test 1
The water-holding property test of esterification reaction products is conducted with reference to the lanolin water retention value test in British Pharmacopoeia (BP) as follows:
A measurement sample (1 g) and Vaseline (9 g) are mixed and vigorously stirred (200 to 300 rpm) in a thermostat chamber at 40° C. while dropwise adding purified water thereto. The point when water is no longer being received is determined as the end-point and is expressed as a percentage of mass of water to mass of the mixture. A higher value means better water-holding properties of the sample.

[5] = Water resistant ability (waterproof-film-forming ability), contact angle before and after washing; details: film on glass plate, before and after washing with flowing tap water 25 mL/s, 1 minute; smaller is better
Procedure: (6) Water Resistant Ability (Waterproof-Film-Forming Ability)
A sample is dissolved in chloroform to prepare a sample solution containing 10% by mass of the sample. The prepared sample solution is applied onto a washed glass plate. Then, the solvent is removed to form a film, and one drop of distilled water is dropped onto the formed film. The contact angle between the film surface and the water droplet is measured. After the measurement, the film is washed with flowing tap water (25 mL/s, 1 minute). The water resistant ability is evaluated by comparing the contact angles before and after the washing. A smaller difference in the contact angle before and after the washing means better water resistant ability.

[6] = Solubility of 4-tert-butyl-4′-methoxydibenzoylmethane when mixed with esterification reaction product; details: mixed with esterification reaction product (Production Example 1)

Compound	(3) Water-retaining properties [1] [% by mass]	(4) Dispersibility Fluid point [2] [% by mass]	(4) Dispersibility Wetting point [2] [% by mass]	endothermic peak due to water at around 0° C. [3]	(1) Water-holding properties [4] [% by mass]	Water resistant ability (difference in contact angle (°)) [5] [°]	solubility of 4-tert-butyl-4′-methoxydibenzoylmethane [6]
CCCCCCC(O)CCCCCCCCCCC(=O)O[C@H]1CC[C@@]2(C)C(=CC[C@H]3[C@@H]4CC[C@H]([C@H](C)CCCC(C)C)[C@@]4(C)CC[C@@H]32)C1 (stereo partly shown) [Cholesteryl hydroxystearate, cholesteryl hydroxystearate]	1.9	9	2	detected	320	–	–
polyglyceryl triisostearate	–	–	–	–	–	21.0	–
COc1ccc(C(=O)CC(=O)c2ccc(C(C)(C)C)cc2)cc1 [4-tert-butyl-4′-methoxydibenzoylmethane]	–	–	–	–	–	–	improved
CC(C)CCCCCCCCCCCCCCCOC(=O)CC(O)C(=O)OCCCCCCCCCCCCCCCC(C)C (stereo not shown) [Diisostearyl malate, diisostearyl malate]	3.0	22	3	detected	200	47.4	–
